Drawing on PubChem BioAssay (NCI), this text covers GI50 and TGI for 8 molecules.

Among the test systems are HCT-15 colon; NCI-H23 lung; IGROV1 ovarian; SR leukemia; UO-31 renal; OVCAR-4 ovarian; HS 578T breast; MOLT-4 leukemia; BT-549 breast; OVCAR-8 ovarian.
Common to all, as to test: NCI anticancer screen, dose series, 48 h

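Exposure lasted 48 hours, with cells grown in 96-well plates and compounds tested at five concentrations. GI50 = concentration required for 50% inhibition of growth. TGI is the concentration that stops growth completely.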

As to `CCN(Cc1ccccc1)c1ccc(CO)c(Cl)c1`, the GI50 in the experiment with HCT-15 colon is 13.8 µM; in the experiment with NCI-H23 lung, 9.44 µM; with IGROV1 ovarian it was 0.112 µM; in the experiment with SR leukemia, above 52.1 µM; in the experiment on UO-31 renal, 6.5 µM; with OVCAR-4 ovarian it was 0.416 µM. Further, the GI50 in the experiment with HS 578T breast is 23.2 µM; in the experiment on MOLT-4 leukemia, 29.9 µM; with BT-549 breast it was 14.1 µM; in the experiment on OVCAR-8 ovarian it was 12.1 µM. Moreover, the TGI in the experiment with HCT-15 colon is above 100 µM; with NCI-H23 lung, above 86 µM; in the experiment on IGROV1 ovarian, 0.934 µM; in the experiment on SR leukemia it was above 100 µM; with UO-31 renal, above 100 µM; with OVCAR-4 ovarian it was 12.1 µM. For the same molecule, the TGI in the experiment on HS 578T breast is above 84.9 µM; in the experiment with MOLT-4 leukemia, above 87.2 µM; with BT-549 breast, 44.6 µM; with OVCAR-8 ovarian, above 100 µM.

As to `Cc1ccc2c(-c3ccnc(Nc4ccccc4)n3)c(-c3ccc(F)cc3)nn2n1`, the GI50 was 5.58 µM in the experiment with HCT-15 colon; 8.25 µM with NCI-H23 lung; 1.13 µM with IGROV1 ovarian; 11.7 µM with SR leukemia; 1.01 µM with UO-31 renal; 11.1 µM with OVCAR-4 ovarian. In addition, the GI50 is 8.51 µM with HS 578T breast, 13.4 µM in the experiment with MOLT-4 leukemia, 10.7 µM in the experiment on BT-549 breast and 9.79 µM in the experiment with OVCAR-8 ovarian. For the same molecule, the TGI with HCT-15 colon was above 25 µM; in the experiment with NCI-H23 lung, above 25 µM; with IGROV1 ovarian, 16.5 µM; in the experiment on SR leukemia, above 25 µM; in the experiment on UO-31 renal it was above 24.1 µM; in the experiment on OVCAR-4 ovarian, above 25 µM. For the same molecule, the TGI with HS 578T breast, in the experiment with MOLT-4 leukemia, with BT-549 breast and in the experiment with OVCAR-8 ovarian was above 25 µM in each case.

On to `N#CC1=C(N)Oc2c(ccc3ccccc23)C1c1ccccc1` (stereo unspecified), for which the GI50 is 0.0478 µM in the experiment with HCT-15 colon; 0.0648 µM in the experiment on NCI-H23 lung; 0.0654 µM in the experiment on IGROV1 ovarian; 0.0336 µM in the experiment with SR leukemia; 0.0622 µM in the experiment with UO-31 renal; 0.063 µM in the experiment with OVCAR-4 ovarian. The GI50 in the experiment with HS 578T breast was 0.0316 µM; with MOLT-4 leukemia it was 0.0574 µM; with BT-549 breast, 0.0821 µM; with OVCAR-8 ovarian, 0.0551 µM. The TGI turned out to be 10.7 µM in the experiment on HCT-15 colon; 16.9 µM in the experiment with NCI-H23 lung; 16.9 µM in the experiment on IGROV1 ovarian; 22.4 µM with SR leukemia; 15.2 µM in the experiment with UO-31 renal; 14.5 µM in the experiment on OVCAR-4 ovarian. Also, the TGI in the experiment with HS 578T breast was determined as 21.3 µM; with MOLT-4 leukemia it was 16.8 µM; with BT-549 breast, 3.4 µM; in the experiment with OVCAR-8 ovarian it was 16.8 µM.

`C=C1C(=O)O[C@H]2[C@H]1CC/C(COC(=O)C(=O)c1cn(C)c3ccc(Cl)cc13)=C\CC[C@@]1(C)O[C@@H]21`: the GI50 is 0.209 µM in the experiment with HCT-15 colon; 1.39 µM in the experiment on NCI-H23 lung; 1.17 µM in the experiment with IGROV1 ovarian; 0.3 µM with SR leukemia; 0.817 µM in the experiment on UO-31 renal; 2.26 µM in the experiment on OVCAR-4 ovarian. For the same molecule, the GI50 is 3.14 µM in the experiment on HS 578T breast, 0.494 µM in the experiment with MOLT-4 leukemia, 0.234 µM in the experiment on BT-549 breast and 2.1 µM with OVCAR-8 ovarian. In addition, the TGI in the experiment with HCT-15 colon is 0.5 µM; in the experiment with NCI-H23 lung, 3.05 µM; in the experiment on IGROV1 ovarian, 2.78 µM; in the experiment with SR leukemia, 50 µM; in the experiment on UO-31 renal, 2.17 µM; in the experiment with OVCAR-4 ovarian, 12.4 µM. Also, the TGI in the experiment on HS 578T breast worked out at 17.6 µM; in the experiment on MOLT-4 leukemia it was 4.17 µM; in the experiment on BT-549 breast it was 0.618 µM; with OVCAR-8 ovarian it was 10.1 µM.

Turning to `COc1cc2ncn(-c3cc(O[C@@H](C)c4ccccc4Cl)c(C(N)=O)s3)c2cc1OC`, the GI50 in the experiment with HCT-15 colon was 0.743 µM; in the experiment with NCI-H23 lung, 1.57 µM; with IGROV1 ovarian it was 3.69 µM; with SR leukemia, 0.701 µM; in the experiment on UO-31 renal, 5.3 µM; with OVCAR-4 ovarian, 3.53 µM. Moreover, the GI50 in the experiment on HS 578T breast was 2.11 µM; in the experiment with MOLT-4 leukemia, 0.926 µM; in the experiment with BT-549 breast, 2.94 µM; in the experiment with OVCAR-8 ovarian it was 1.45 µM. Moreover, the TGI is above 25 µM in the experiment on HCT-15 colon; above 25 µM in the experiment with NCI-H23 lung; above 25 µM in the experiment with IGROV1 ovarian; above 18.8 µM in the experiment on SR leukemia; above 25 µM with UO-31 renal; above 25 µM in the experiment with OVCAR-4 ovarian. For the same molecule, the TGI in the experiment on HS 578T breast is 13.4 µM; in the experiment with MOLT-4 leukemia, above 18.4 µM; in the experiment with BT-549 breast, above 24.1 µM; in the experiment on OVCAR-8 ovarian it was above 25 µM.

With `O=S(=O)(NCCCNc1nccc(-c2c(-c3ccc(F)c(O)c3)nc3sccn23)n1)c1ccc(F)cc1`, the GI50 was 2.42 µM in the experiment with HCT-15 colon; 2.31 µM in the experiment with NCI-H23 lung; 1.51 µM with IGROV1 ovarian; 2.13 µM with SR leukemia; 2.96 µM in the experiment with UO-31 renal; 2.62 µM with HS 578T breast. Moreover, the GI50 with MOLT-4 leukemia is 1.73 µM; in the experiment with BT-549 breast, 1.84 µM; in the experiment with OVCAR-8 ovarian it was 2.3 µM. The TGI was 10.8 µM in the experiment on HCT-15 colon; 7.39 µM in the experiment on NCI-H23 lung; 5.88 µM in the experiment on IGROV1 ovarian; above 100 µM in the experiment on SR leukemia; 7.77 µM in the experiment with UO-31 renal; 7.07 µM in the experiment on HS 578T breast. In addition, the TGI in the experiment with MOLT-4 leukemia was 5.57 µM; in the experiment on BT-549 breast it was 7.14 µM; in the experiment on OVCAR-8 ovarian, above 100 µM.

For `C[C@@H](O)[C@H](NC(=O)N[C@@H](CC(N)=O)c1nc([C@@H](N)CO)no1)C(=O)O`, the GI50 with HCT-15 colon, in the experiment on NCI-H23 lung, with IGROV1 ovarian, with SR leukemia, in the experiment with UO-31 renal and in the experiment on OVCAR-4 ovarian was above 100 µM throughout. Further, the GI50 in the experiment with HS 578T breast, in the experiment with MOLT-4 leukemia, in the experiment on BT-549 breast and in the experiment with OVCAR-8 ovarian was above 100 µM each time. For the same molecule, the TGI in the experiment on HCT-15 colon, in the experiment with NCI-H23 lung, in the experiment with IGROV1 ovarian, with SR leukemia, in the experiment on UO-31 renal and in the experiment with OVCAR-4 ovarian was above 100 µM throughout. For the same molecule, the TGI in the experiment with HS 578T breast, with MOLT-4 leukemia, in the experiment on BT-549 breast and with OVCAR-8 ovarian was above 100 µM in each case.

For the molecule `O=c1cc(N2CCN(CCCCCOc3cc(O)c4c(=O)cc(-c5ccccc5)oc4c3)CC2)c2ccccc2o1`, the GI50 in the experiment with HCT-15 colon was above 100 µM; in the experiment on NCI-H23 lung it was 0.218 µM; in the experiment on IGROV1 ovarian, 47.4 µM; in the experiment with SR leukemia it was 42.9 µM; with UO-31 renal, 50.8 µM; in the experiment with OVCAR-4 ovarian it was 62.7 µM. The GI50 is above 100 µM in the experiment with HS 578T breast, 57.9 µM in the experiment with BT-549 breast and above 100 µM in the experiment on OVCAR-8 ovarian. The TGI in the experiment on HCT-15 colon is above 100 µM; in the experiment with NCI-H23 lung, 0.475 µM; in the experiment on IGROV1 ovarian it was above 100 µM; in the experiment on SR leukemia, above 100 µM; in the experiment on UO-31 renal, above 100 µM; with OVCAR-4 ovarian it was above 100 µM. Moreover, the TGI with HS 578T breast, with BT-549 breast and with OVCAR-8 ovarian was above 100 µM in each case.
